From PubChem BioAssay (NCI)
Several values for one entry are separate records, joined by “and”; a condition that tells them apart may be missing. Equal entries are not always repeated.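 Test compounds were applied to cells in 96-well plates for 48 hours at 5 doses. GI50 = concentration required for 50% inhibition of growth. At the TGI there is no net growth.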

Columns and labels:
Assay in all cases: NCI-60 cell line screen, 48 h
NCI-H460 lung = system: NCI-H460 lung
ACHN renal = system: ACHN renal
MCF7 breast = system: MCF7 breast
HOP-62 NSCLC = system: HOP-62 NSCLC
PC-3 prostate = system: PC-3 prostate
SK-MEL-2 melanoma = system: SK-MEL-2 melanoma
OVCAR-8 ovarian = system: OVCAR-8 ovarian
UO-31 renal = system: UO-31 renal
HCT-15 colon = system: HCT-15 colon
SF-539 CNS = system: SF-539 CNS

| SMILES | GI50 (NCI-H460 lung) | TGI (NCI-H460 lung) | GI50 (ACHN renal) | TGI (ACHN renal) | GI50 (MCF7 breast) | TGI (MCF7 breast) | GI50 (HOP-62 NSCLC) | TGI (HOP-62 NSCLC) | GI50 (PC-3 prostate) | TGI (PC-3 prostate) | TGI (SK-MEL-2 melanoma) | GI50 (OVCAR-8 ovarian) | TGI (OVCAR-8 ovarian) | GI50 (UO-31 renal) | TGI (UO-31 renal) | GI50 (HCT-15 colon) | TGI (HCT-15 colon) | GI50 (SF-539 CNS) | TGI (SF-539 CNS) | GI50 (SK-MEL-2 melanoma) |
| --- | --- | --- | --- | --- | --- | --- | --- | --- | --- | --- | --- | --- | --- | --- | --- | --- | --- | --- | --- | --- |
| N#Cc1c(NCc2ccccc2)nc(NCc2ccccc2)c(C#N)c1-c1ccc(Cl)cc1 | > 50 µM and 34.4 µM | > 100 µM | > 50 µM and 43.4 µM | > 100 µM | > 50 µM and 66.8 µM | > 100 µM | > 50 µM and 22.3 µM | > 50 µM and 62.7 µM | > 50 µM and 61.2 µM | > 100 µM | > 50 µM and 30.4 µM | > 50 µM and 45.7 µM | > 100 µM | > 100 µM | > 100 µM | > 100 µM | > 100 µM | > 50 µM and 29 µM | > 100 µM |  |
| C/C(CCC(=O)O)=N/Nc1ccc([N+](=O)[O-])cc1 | 3.12 µM | > 100 µM | 2.19 µM | > 100 µM | 24.4 µM | > 100 µM | > 100 µM | > 100 µM | 11.5 µM | > 100 µM | > 100 µM | 42.6 µM | > 100 µM | 3.27 µM | > 100 µM | 3.35 µM | > 100 µM | 3.18 µM | 14.8 µM | 66.3 µM |
| Cc1cc(Cl)nc2ccc(Cc3ccc4nc(Cl)cc(C)c4c3)cc12 |  | > 100 µM |  | 70.8 µM |  | 91.5 µM |  | 96.9 µM |  | > 100 µM | > 100 µM |  | > 100 µM |  | > 100 µM |  | > 100 µM |  | 32 µM |  |
| Oc1c(C(Nc2ccccn2)c2cccc(Oc3ccccc3)c2)ccc2cccnc12 (stereo not drawn) | 0.365 µM | 10.5 µM | 0.41 µM | 7.2 µM | 0.416 µM | 13.9 µM | 0.448 µM | 21 µM | 0.483 µM | 20.1 µM | 21 µM | 0.424 µM | 19.7 µM | 0.382 µM | 3.11 µM | 0.331 µM | > 100 µM | 0.372 µM | 3.56 µM | 1.68 µM |
| Cc1ccc(C)c2c1C(=O)N(c1ccc(F)cc1F)C2=O | > 100 µM | > 100 µM | > 100 µM | > 100 µM | > 100 µM | > 100 µM | > 100 µM | > 100 µM | > 100 µM | > 100 µM | > 100 µM | > 100 µM | > 100 µM | > 100 µM | > 100 µM | > 100 µM | > 100 µM | > 100 µM | > 100 µM | > 100 µM |
| COc1ccc(-c2cc(/C=C3\C(=O)Nc4cc(Cl)ccc43)[nH]n2)cc1 | 3.43 µM | 23.1 µM | 5.49 µM | > 100 µM | 2.19 µM | 37.3 µM | 2.75 µM | 85.9 µM | 2.75 µM | > 100 µM | > 100 µM | 4.55 µM | 98.6 µM | 3.49 µM | > 100 µM | 2.53 µM | > 100 µM | 2.41 µM | 7.52 µM | 4.35 µM |
| COC(=O)c1ccc2nc(-c3cc4ccccc4n3C)n(CCCCOc3cc4c(cc3OC)C(=O)N3CCC[C@H]3C=N4)c2c1 | 0.561 µM | 1.55 µM | 1.17 µM | 6.75 µM | 0.292 µM | 1.41 µM | 0.905 µM | 3.76 µM | 0.457 µM | 10.3 µM | 0.631 µM | 0.8 µM | 7.25 µM | 0.389 µM | 2.19 µM | 2.41 µM | 8.94 µM | 0.881 µM | 2.43 µM |  |
| CCN1CCC(CC(=O)Nc2n[nH]c3nnc(-c4cccc(F)c4F)cc23)CC1 | > 25 µM | > 25 µM | > 25 µM | > 25 µM | 4.11 µM | > 25 µM | > 25 µM | > 25 µM | > 25 µM | > 25 µM | > 25 µM | > 25 µM | > 25 µM | > 25 µM | > 25 µM | > 25 µM | > 25 µM | > 18.9 µM | > 25 µM | 16.9 µM |
| COC1=CC(c2ccc[nH]2)=N/C1=C\c1[nH]c(C)c(C(=O)CCC(=O)Oc2ccc3c(c2)CCC2C3CC[C@]3(C)[C@@H](O)CC[C@@H]23)c1C (stereo partly drawn) | 3.07 µM | > 100 µM | 1.94 µM | 6.7 µM | 0.917 µM | > 100 µM | 1.87 µM | 4.95 µM | 3.8 µM | > 100 µM | 17.8 µM | 3.94 µM | > 100 µM | 1.59 µM | 3.73 µM | 1.29 µM | 4.18 µM | 3.69 µM | 28.8 µM | 3.52 µM |
| CCCCCCC1N=C(N)N=C(N)N1c1cccc(Cl)c1 (stereo not drawn) | 0.0873 µM | 12.7 µM | 9.28 µM | > 100 µM | 0.368 µM | 12.7 µM | 0.436 µM | 10.9 µM | 0.0576 µM | 16 µM | 27.7 µM | 0.612 µM | 19.5 µM | 31.5 µM | 97.5 µM | 21.6 µM | > 100 µM | 0.0846 µM | 5.76 µM | 11.3 µM |
| CNC(=O)c1nn(C)c2c1C(C)(C)Cc1cnc(Nc3cccc(N4CCN(C)CC4)c3)nc1-2 | 0.303 µM | 11.8 µM | 0.0896 µM | > 58.2 µM | 0.304 µM | 15.5 µM | 0.44 µM | 17.9 µM | 0.189 µM | 7.24 µM | 4.22 µM | 1.25 µM | 22.3 µM | 0.0881 µM | 1.96 µM | 0.186 µM | > 40.7 µM | 0.406 µM | 3.06 µM | 0.244 µM |
| CN1CCN(Cc2ccc(NC(=O)c3cncc(C#Cc4c(N)ncc5ccc(C#N)cc45)c3)cc2C(F)(F)F)CC1 | 0.878 µM | 1.77 µM | 0.717 µM | 1.39 µM | 0.694 µM | 1.59 µM | 0.849 µM | 1.92 µM | 0.891 µM | 1.75 µM | 9.56 µM | 0.926 µM | 1.87 µM | 0.971 µM | 1.73 µM | 0.827 µM | 1.72 µM | 0.76 µM | 3.07 µM | 2.44 µM |
| CCc1ccccc1NC(=O)C(C#N)C1=C(Cl)C(=O)c2ccccc2C1=O (stereo not drawn) |  | 40.6 µM |  | 29.9 µM |  | 57 µM |  | 43.4 µM |  | 33 µM | 37.2 µM |  | 37 µM |  | 26.6 µM |  | 28.7 µM |  | 37.2 µM |  |
| CS(=O)(=O)N1CCC(n2c(=O)c(Oc3ccc(F)cc3F)cc3cnc(NC4CCOCC4)nc32)CC1 | > 25 µM | > 25 µM | > 25 µM | > 25 µM | > 25 µM | > 25 µM | > 25 µM | > 25 µM | > 25 µM | > 25 µM | > 25 µM | > 25 µM | > 25 µM | 16.9 µM | > 25 µM | > 25 µM | > 25 µM | > 25 µM | > 25 µM | > 25 µM |
| COc1cc2c3c(n(CCCN4CCNCC4)c(=O)c2cc1OC)-c1cc2c(cc1C3=O)OCO2 | 0.00951 µM | 2.07 µM | 0.0394 µM | 0.283 µM | 0.0119 µM | 7.66 µM | 0.0265 µM | 0.138 µM | 0.94 µM | 10.1 µM | 28.3 µM | 0.0803 µM | 1.06 µM | 1.19 µM | 10.6 µM | 0.296 µM | 5.14 µM | 0.0399 µM | 0.355 µM | 2.91 µM |
| CC1CCCC(C(=O)CC2CC(=O)NC(=O)C2)C1=O (stereo not drawn) |  | > 100 µM |  | > 100 µM |  | > 100 µM |  | > 100 µM |  | > 100 µM | > 100 µM |  | > 100 µM |  | > 100 µM |  | > 100 µM |  | > 100 µM |  |
| C[C@@H](N)COc1ccc(-c2cnc3ccc(N[C@H](C)c4cccc(F)c4)nn23)cc1 | 1.75 µM | 3.88 µM | 2.15 µM | 6.35 µM | 1.24 µM | 2.69 µM | 2.29 µM | 11.9 µM | 1.62 µM | 9.39 µM | 4.48 µM | 1.84 µM | 4.3 µM | 1.94 µM | 7.81 µM | 2.32 µM | 10.1 µM | 1.52 µM | 2.86 µM | 1.99 µM |
